{
  "source": "patent US9732322B2",
  "about": "“Compositions for mesoderm derived ISL1+ multipotent cells (IMPs), epicardial progenitor cells (EPCs) and multipotent C56C cells (C56Cs) and methods of producing and using same” (UNIVERSITY OF GEORGIA RESEARCH FOUNDATION, INC., priority 2008, dated 2017)",
  "key": {"CXCR4 receptor": {"target": "T1, CXCR4 receptor (Homo sapiens, UniProt P61073)", "T1 construct": "endogenous in cells; host or cells: C56C cells (CXCR4+ CD56+), differentiated from MMCs derived from human pluripotent stem cells", "experiment": "Boyden chamber migration assay of C56C cells", "assay_type": "cell-based", "description": "FIG. 61. To investigate the mechanisms by which C56Cs migrate towards ischemic/damaged tissue we assayed these cells in a Boyden chamber assay. 300,000 C56C cells were seeded in the upper chamber of a Boyden chamber.\nTo investigate the mechanisms by which C56Cs migrate towards ischemic/damaged tissue we assayed these cells in a Boyden chamber assay. 300,000 C56C cells were seeded in the upper chamber of a Boyden chamber."}, "Isl1+ IMP (Spl-m) cells": {"system": "Isl1+ IMP (Spl-m) cells", "experiment": "Stage 2 differentiation of Isl1+ IMPs/Spl-m to Wt1+ epicardial progenitor (PE-like) cells", "assay_type": "cell-based, human", "details": "for Erk activation in Isl1+ Spl-m: immunoblot, phospho-Erk1,2", "description": "hESC/hFib2-iPS4 hiPSCs grown in StemPro defined media/defined media were differentiated into IMPs (as described above and elsewhere). At day 4, IMP cell stage, the defined media was supplemented with BMP4 (50 ng/ml, range about 2-100 ng/ml, R&D Systems), Wnt3a (25 ng/ml, range about 1-100+ng/ml, R&D Systems) and all-trans retinoic acid (4 μM, range about 0.25-25 μM Sigma), media changed every 2 (1-4 days) days, for about 10-16 days (about 7-25 days) (FIG. 39). The expression of Wt-1, Tbx18, Raldh2 and Tcf21 (epicardin) were confirmed by Q-PCR (FIGS. 40, 42) and Wt-1 by immunofluorescence (FIG. 41). This method typically gives cultures that are >80% positive for Wt1.\n(§1) WA01, WA07, WA09, BG01 and BG02 hESCs and Fib-iPS4 hIPSCs^28 were adapted from mouse embryo fibroblast feeder-based culture conditions to feeder-free growth in chemically defined media (CDM) using single cell suspensions^50. Briefly, CDM is composed of DMEM/F12 (Mediatech), 2% probumin (Bovine Serum Albumin fraction V) biotech grade (Millipore), 1× nonessential amino acids, 50 U/mL penicillin, 50 μg/mL streptomycin, 1× trace elements A, B, C (all from Mediatech), 10 μg/mL transferrin, 0.1 mM […] (Gibco), 50 μg/mL ascorbic acid (Sigma), 8 ng/mL bFGF (Invitrogen), 200 ng/mL LR-IGF (Sigma), 10 ng/mL Activin A (R and D Systems) and 10 ng/mL […] (Peprotech). Cells were passaged every 4-5 d using Accutase (Innovative Cell Technologies) to form a single cell suspension and then plated onto plates coated with 1:200 Geltrex (Invitrogen) at a cell density of 7.5×10^4 cells/cm^2 at 37° C. in 5% CO2. Media was changed every 24 h. To differentiate hESC in Stage 1 (FIG. 62), cells were plated at a density of 5.1×10^4 cells/cm^2 into CDM containing 25 ng/mL rmWnt3a and 100 ng/mL rhBMP4 (R&D Systems). Cells were cultured at 37° C. in 5% CO2 and media changed every 24 h for 4-6 d. CDM for Stage 2 of differentiation was supplemented with 25 ng/mL rmWnt3a, 50 ng/mL rhBMP4 with either 100 ng/ml Fgf2 or 4 μM all-trans retinoic acid (Sigma), changing media every 48 h for 10-16 d. For Stage 3 differentiation, Stage 2 cells were passaged at day 16 into CDM without Activin A, supplemented with 10 ng/mL rhVEGF-A165 (R&D Systems). All bright field images were acquired on a Leica DMIL microscope.\nProgenitor cells of the coronary vasculature are believed to reside in the PE and after forming the epicardium, seed the myocardium for future vessel formation. Many unanswered questions remain as to the characteristics of these progenitor cells but clearly, a better understanding of PE development will provide significant insight into this question. Lineage tracing studies in vivo indicate that PE and epicardium forms from an Isl1^+ Nkx2.5^+ progenitor^6, 18, 29. […]"}, "[1]": {"system": "hESC-derived Wt1+ PE cells (EPCs)", "experiment": "Stage 3 differentiation of Wt1+ EPC/PE cells to smooth muscle and endothelial cells, immunostaining", "assay_type": "cell-based, human", "details": "VEGF 10 ng/ml, 10 days", "procedure": "WA01, WA07, WA09, BG01 and BG02 hESCs and Fib-iPS4 hIPSCs^28 were adapted from mouse embryo fibroblast feeder-based culture conditions to feeder-free growth in chemically defined media (CDM) using single cell suspensions^50. Briefly, CDM is composed of DMEM/F12 (Mediatech), 2% probumin (Bovine Serum Albumin fraction V) biotech grade (Millipore), 1× nonessential amino acids, 50 U/mL penicillin, 50 μg/mL streptomycin, 1× trace elements A, B, C (all from Mediatech), 10 μg/mL transferrin, 0.1 mM 3-mercaptoethanol (Gibco), 50 μg/mL ascorbic acid (Sigma), 8 ng/mL bFGF (Invitrogen), 200 ng/mL LR-IGF (Sigma), 10 ng/mL Activin A (R and D Systems) and 10 ng/mL Heregulin 13 (Peprotech). Cells were passaged every 4-5 d using Accutase (Innovative Cell Technologies) to form a single cell suspension and then plated onto plates coated with 1:200 Geltrex (Invitrogen) at a cell density of 7.5×10^4 cells/cm^2 at 37° C. in 5% CO2. Media was changed every 24 h. To differentiate hESC in Stage 1 (FIG. 62), cells were plated at a density of 5.1×10^4 cells/cm^2 into CDM containing 25 ng/mL rmWnt3a and 100 ng/mL rhBMP4 (R&D Systems). Cells were cultured at 37° C. in 5% CO2 and media changed every 24 h for 4-6 d. CDM for Stage 2 of differentiation was supplemented with 25 ng/mL rmWnt3a, 50 ng/mL rhBMP4 with either 100 ng/ml Fgf2 or 4 μM all-trans retinoic acid (Sigma), changing media every 48 h for 10-16 d. […]"}, "WA09 hESCs": {"system": "WA09 hESCs", "experiment": "Stage 1 differentiation of WA09 hESCs to Isl1+ splanchnic mesoderm; Q-PCR, immunostaining, flow cytometry", "assay_type": "cell-based, human", "details": "for differentiation / gene expression changes with single factor alone: data not shown", "description": "as §1, with “To differentiate hESC in Stage 1 (FIG. 62), cells were plated at a density of 5.1×10^4 cells/cm^2 into CDM containing 25 ng/mL rmWnt3a and 100 ng/mL rhBMP4 (R&D Systems).” left out\nCells were collected as single cell suspensions following harvesting with Accutase and then analyzed using a Cyan flow cytometer (Dako). Cells were blocked with species-specific serum for 30 min followed by blocking with CD16/32 (eBiosciences) for a further 15 min then, with specific antibodies shown in FIG. 81, Table 4. Immunofluorescence was performed on 4% paraformaldehyde-fixed cells in the presence of 10% donkey serum and 0.25% Triton X100 followed by visualization using 2.5% donkey serum in PBS with fluorescent conjugated secondary antibodies. DAPI (Sigma) was used to counterstain nuclei. […]"}},
  "data": [
    {"molecule": "c1cc(CN2CCCNCCNCCCNCC2)ccc1CN1CCCNCCNCCCNCC1", "note": "[AMD3100]", "values": [
      {"measurement": "migration of C56C cells towards SDF1", "setting": "CXCR4 receptor; antagonist added", "result": "blocked"}
    ]},
    {"molecule": "CC1=C(/C=C/C(C)=C/C=C/C(C)=C/C(=O)O)C(C)(C)CCC1", "note": "[RA, All-trans retinoic acid, reference compound]", "values": [
      {"measurement": "treated cells expressing Wt1, Raldh2 and Tbx20", "setting": "Isl1+ IMP (Spl-m) cells; RA 4 μM with Wnt3a and BMP4, immunofluorescence", "result": "More than 90%"},
      {"measurement": "Erk activation in Isl1+ Spl-m", "setting": "Isl1+ IMP (Spl-m) cells", "result": "activated Erk"}
    ]},
    {"molecule": "Fgf2: fibroblast growth factor 2", "values": [
      {"measurement": "transcripts expressed in PE/epicardium (Wt1, Raldh2, Tbx18, Tbx5)", "setting": "Isl1+ IMP (Spl-m) cells; Fgf2 100 ng/ml after 4 days of Wnt/BMP", "result": "dramatic increases"},
      {"measurement": "Erk activation in Isl1+ Spl-m", "setting": "Isl1+ IMP (Spl-m) cells", "result": "activated Erk"}
    ]},
    {"molecule": "SDF1: SDF1 cytokine", "values": [
      {"measurement": "migration of C56C cells towards cytokine in lower chamber", "setting": "CXCR4 receptor; 300,000 C56C cells in upper chamber", "result": "responsive and migrate towards"}
    ]},
    {"molecule": "VEGF", "values": [
      {"measurement": "cells positive for CD31 and VE-cadherin (endothelial cells)", "setting": "[1]", "result": "10-20%"},
      {"measurement": "cells positive for SMA and calponin (smooth muscle cells)", "setting": "[1]", "result": "80-90%"}
    ]},
    {"molecule": "BMP4: bone morphogenic protein 4 (protein, UniProt P12644 293-408, looked up) Bone morphogenetic protein 4: SPKHHSQRARKKNKNCRRHSLYVDFSDVGWNDWIVAPPGYQAFYCHGDCPFPLADHLNSTNHAIVQTLVNSVNSSIPKACCVPTELSAISMLYLDEYDKVVLKNYQEMVVEGCGCR", "values": [
      {"measurement": "differentiation / gene expression changes with single factor alone", "setting": "WA09 hESCs", "result": "promoted differentiation"}
    ]},
    {"molecule": "Dkk1: Wnt antagonist Dkk1 (protein, UniProt O94907 32-266, looked up) Dickkopf-related protein 1: TLNSVLNSNAIKNLPPPLGGAAGHPGSAVSAAPGILYPGGNKYQTIDNYQPYPCAEDEECGTDEYCASPTRGGDAGVQICLACRKRRKRCMRHAMCCPGNYCKNGICVSSDQNHFRGEIEETITESFGNDHSTLDGYSRRTTLSSKMYHTKGQEGSVCLRSSDCASGLCCARHFWSKICKPVLKEGQVCTKHRRKGSHGLEIFQRCYCGEGLSCRIQKDHHQASNSSRLHTCQRH", "values": [
      {"measurement": "BMP4-dependent differentiation of hESCs without exogenous Wnt3a", "setting": "WA09 hESCs; Dkk1 150 ng/ml with BMP4 50 ng/ml", "result": "blocked"}
    ]},
    {"molecule": "Wnt3a: wingless (Wnt) protein (protein, UniProt P56704 19-352, looked up) Protein Wnt-3a: SYPIWWSLAVGPQYSSLGSQPILCASIPGLVPKQLRFCRNYVEIMPSVAEGIKIGIQECQHQFRGRRWNCTTVHDSLAIFGPVLDKATRESAFVHAIASAGVAFAVTRSCAEGTAAICGCSSRHQGSPGKGWKWGGCSEDIEFGGMVSREFADARENRPDARSAMNRHNNEAGRQAIASHMHLKCKCHGLSGSCEVKTCWWSQPDFRAIGDFLKDKYDSASEMVVEKHRESRGWVETLRPRYTYFKVPTERDLVYYEASPNFCEPNPETGSFGTRDRTCNVSSHGIDGCDLLCCGRGHNARAERRREKCRCVFHWCCYVSCQECTRVYDVHTCK", "values": [
      {"measurement": "differentiation / gene expression changes with single factor alone", "setting": "WA09 hESCs", "result": "None of the gene expression changes"}
    ]}
  ]
}
